Legend:
[1] = biological target: Human CB2R (Cannabinoid receptor 2) (Homo sapiens, UniProt P34972); assay: CB-2 in vitro cAMP (HTRF) assay; type: cell-based; conditions: HEK cells, cAMP HTRF, 250 nM forskolin; mean where tested more than once; read-out: CB2 HEK_cAMP EC50
In short: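 Competitive HTRF read-out (d2-labelled cAMP vs cryptate antibody) quantifies cAMP in stably transfected HEK-293 cells, seeded the day before at 4E5 cells/mL. Stimulation buffer: HBSS, 5 mM HEPES, 0.1% BSA, 0.5 mM IBMX; forskolin prepared at 1.5 μM in buffer; compounds serially diluted 1/3 in DMSO.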

[2] = biological target: Human CB1R (Cannabinoid receptor 1) (Homo sapiens, UniProt P21554); assay: CB-1 in vitro cAMP (HTRF) assay; type: cell-based; conditions: HEK cells, cAMP HTRF, 250 nM forskolin; mean where tested more than once; read-out: CB1 HEK_cAMP EC50
In short: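 Intracellular cAMP from HTRF ratio (d2-cAMP vs Eu-cryptate anti-cAMP), converted to nM via per-plate standards, in stable human CB1R HEK-293 cells.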

Human CB1R (Cannabinoid receptor 1), sequence (P21554 whole entry): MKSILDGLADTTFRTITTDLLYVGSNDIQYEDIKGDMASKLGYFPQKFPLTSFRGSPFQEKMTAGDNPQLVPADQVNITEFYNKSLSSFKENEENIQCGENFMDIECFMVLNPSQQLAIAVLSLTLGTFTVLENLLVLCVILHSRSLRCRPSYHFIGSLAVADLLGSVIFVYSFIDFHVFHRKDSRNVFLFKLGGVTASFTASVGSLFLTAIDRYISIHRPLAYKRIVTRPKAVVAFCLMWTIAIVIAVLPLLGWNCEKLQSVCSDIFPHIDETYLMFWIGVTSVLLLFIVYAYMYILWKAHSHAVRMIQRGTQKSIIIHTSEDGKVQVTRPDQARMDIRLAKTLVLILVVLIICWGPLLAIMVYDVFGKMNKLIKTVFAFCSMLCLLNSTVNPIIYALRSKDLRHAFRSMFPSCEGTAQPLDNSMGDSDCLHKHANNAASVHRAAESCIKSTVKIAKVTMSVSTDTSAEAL
Human CB2R (Cannabinoid receptor 2), sequence (P34972 whole entry): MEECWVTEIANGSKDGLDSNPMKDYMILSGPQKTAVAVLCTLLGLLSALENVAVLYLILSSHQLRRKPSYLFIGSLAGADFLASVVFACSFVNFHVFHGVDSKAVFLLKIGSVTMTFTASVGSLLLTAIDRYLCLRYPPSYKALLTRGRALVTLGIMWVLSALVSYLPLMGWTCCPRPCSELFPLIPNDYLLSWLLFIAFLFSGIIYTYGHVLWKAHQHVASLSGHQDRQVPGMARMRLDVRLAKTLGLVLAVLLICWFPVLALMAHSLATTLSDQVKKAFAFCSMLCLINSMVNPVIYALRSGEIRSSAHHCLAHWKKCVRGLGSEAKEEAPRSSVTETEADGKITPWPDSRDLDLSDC

`COc1ccc(-n2c(C3CC3)nc3ccc(C(c4ccc(Cl)cc4)c4ccc(Cl)cc4)cc32)cc1` [Example 179] was tested, and the EC50 [1] was > 10000 nM and the EC50 [2] was 1.7 nM.
For `NC(=O)c1cncc(CN2CCC(n3c(C4CC4)nc4ccc(C(c5ccc(Cl)cc5)c5ccc(Cl)cc5)cc43)CC2)c1` [Example 121], the EC50 [1] was 7970 nM and the EC50 [2] was 5.1 nM.
For `NC(=O)c1ccc(S(=O)(=O)N2CCC(n3c(C4CC4)nc4ccc(C(c5ccc(Cl)cc5)c5ccc(Cl)cc5)cc43)CC2)cc1C(F)(F)F` [Example 184], the EC50 [1] was > 10000 nM and the EC50 [2] was 31.4 nM.
In the case of `CCOC(=O)N1CCC(n2c(C3CCCO3)nc3ccc(C(c4ccc(Cl)cc4)c4nccs4)cc32)CC1` (centres unmarked) [Example 411], the EC50 [1] is reported as > 10000 nM and the EC50 [2] is reported as 376 nM.
For `NC(=O)c1ccc(S(=O)(=O)N2CCC(n3c(C4CC4)nc4ccc(C(c5ccc(Cl)cc5)c5ccc(Cl)cc5)cc43)CC2)cc1Cl` [Example 252], the EC50 [1] was 6240 nM and the EC50 [2] was 13.1 nM.
`O=C(OCc1ccccc1)N1CCC(n2c(C3CC3)nc3ccc(C(c4ccc(Cl)cc4)c4ccc(Cl)cc4)cc32)CC1` [Example 69] showed an EC50 [1] of 1210 nM and an EC50 [2] of 8.6 nM.
For `O=C(O)[C@H]1CC[C@@H](n2c(C3CC3)nc3ccc(C(c4ccc(Cl)cc4)c4ccc(Cl)cc4)cc32)CC1` [Example 137], the EC50 [1] was > 10000 nM and the EC50 [2] was 9000 nM.
In the case of `COC(=O)CCNC(=O)c1cccc(S(=O)(=O)N2CCC(n3c(C4CC4)nc4ccc(C(c5ccc(Cl)cc5)c5ccc(Cl)cc5)cc43)CC2)c1` [Example 203], the EC50 [1] is reported as > 10000 nM and the EC50 [2] is reported as 32.4 nM.
Molecule `NC(=O)c1ccc(N2CCC(n3c(C4CC4)nc4ccc(C(c5ccc(Cl)cc5)c5ccc(Cl)cc5)cc43)CC2)cc1` [Example 161] has an EC50 [1] of 2110 nM and an EC50 [2] of 8 nM.
`O=C(O)c1cc(S(=O)(=O)N2CCC(n3c(C4CC4)nc4ccc(C(c5ccc(Cl)cc5)c5ccc(Cl)cc5)cc43)CC2)ccc1Cl` [Example 214] showed an EC50 [1] of 5050 nM and an EC50 [2] of 22.5 nM.
For `CCc1nc2ccc(C(c3ccc(Cl)cc3)c3nccs3)cc2n1CCc1cccc(Cl)c1` (centres unmarked) [Example 409], the EC50 [1] was > 10000 nM and the EC50 [2] was 47.8 nM.
Molecule `CCOC(=O)COc1cccc(-n2c(C3CC3)nc3ccc(C(c4ccc(Cl)cc4)c4ccc(Cl)cc4)cc32)c1` [Example 173] has an EC50 [1] of 9200 nM and an EC50 [2] of 55.9 nM.
`O=C(O)c1ccc(S(=O)(=O)N[C@H]2CC[C@H](n3c(C4CC4)nc4ccc(C(c5ccc(Cl)cc5)c5ccc(Cl)cc5)cc43)CC2)cc1` [Example 21] was tested, and the EC50 [1] was 4540 nM and the EC50 [2] was 253 nM.
Molecule `Clc1ccc(C(c2ccc(Cl)cc2)c2ccc3ncn(C4Cc5ccccc5C4)c3c2)cc1` [Example 298] has an EC50 [1] of 9000 nM and an EC50 [2] of 906 nM.
Work on `NC(=O)c1ccc(C(=O)N2CCC(n3c(C4CC4)nc4ccc(C(c5ccc(Cl)cc5)c5ccc(Cl)cc5)cc43)CC2)cc1` [Example 254] yielded an EC50 [1] of 1250 nM and an EC50 [2] of 36.6 nM.
With `COC(=O)c1cc(OCCn2c(C3CC3)nc3ccc(C(c4ccc(Cl)cc4)c4ccc(Cl)cc4)cc32)cc(C(F)(F)F)c1` [Example 18] the EC50 [1] was > 10000 nM and the EC50 [2] was 53.3 nM.
With `CCOC(=O)N1CCC(n2c(N)nc3ccc(C(c4ccc(Cl)cc4)c4nccs4)cc32)CC1` (centres unmarked) [Example 440] the EC50 [1] was > 10000 nM and the EC50 [2] was 999 nM.
In the case of `COc1ccc(S(=O)(=O)N2CCC(n3c(C4CC4)nc4ccc(C(c5ccc(Cl)cc5)c5ccc(Cl)cc5)cc43)CC2)cc1F` [Example 225], the EC50 [1] is reported as > 10000 nM and the EC50 [2] is reported as 41.5 nM.
With `COC(=O)C(c1ccc(Cl)cc1)(c1ccc(Cl)cc1)c1ccc2nc(C3CC3)n(CC3CCN(S(=O)(=O)C(F)(F)F)CC3)c2c1` [Example 14] the EC50 [1] was > 10000 nM and the EC50 [2] was 17 nM.
For `O=C(O)c1cccc(CN2CCC(n3c(C4CC4)nc4ccc(C(c5ccc(F)cc5)c5ccc(F)cc5)cc43)CC2)c1` [Example 97], the EC50 [1] was > 10000 nM and the EC50 [2] was 18.7 nM.
With `CCc1csc(C(c2ccc(Cl)cc2)c2ccc3ncn(Cc4ccc(Cl)cc4)c3c2)n1` (centres unmarked) [Example 460] the EC50 [1] was > 10000 nM and the EC50 [2] was > 10000 nM.
Work on `O=C(O)c1ccc(S(=O)(=O)N2CCC(n3c(C4CC4)nc4ccc(C(c5ccc(Cl)cc5)c5ccc(Cl)cc5)cc43)CC2)cc1F` [Example 190] yielded an EC50 [1] of 699 nM and an EC50 [2] of 11.3 nM.

— patent US20190031618A1, “BENZIMIDAZOLE DERIVATIVES USEFUL AS CB-1 INVERSE AGONISTS” (Janssen Pharmaceutica NV, priority 2015, published 2019)
